The values below come from patent US20060205714A1, “Method of synthesis and isolation of solid N-desmethylclozapine and crystalline forms thereof” (priority 2004, published 2006).

The nature of series [1]: Storage stability of the crystal forms (humidity, temperature, dry nitrogen). The format is physicochemical. The following applies: for conversion to hydrated or other crystalline forms on storage / stability under humid atmosphere / high relative humidity: stored at high, such as 75% or 90%, relative humidity in air at elevated temperature.
Series [2] in a line: Water solubility of crystal forms. Format: physicochemical.
The subject of series [3] is schizophrenics. Particulars: cited from earlier work.
The subject of series [4] is Alzheimer's Disease patients. The following applies: cited from earlier work.
Series [5] is described as follows: Solubility in solvents. Format: physicochemical.
In series [6] the test system is psychosis and other neuropsychiatric disorders. Particulars: in vivo; cited from earlier work.

With `Clc1ccc2c(c1)N=C(N1CCNCC1)c1ccccc1N2` [8-chloro-11-(1-piperazinyl)-5H-dibenzo[b,e]-[1,4]diazepin], the “stability of mixtures of crystal forms A and B” value in series [1] is given as “very stable”.

`Clc1ccc2c(c1)N=C(N1CCNCC1)c1ccccc1N2` [Form A, 8-chloro-11-(1-piperazinyl)-5H-dibenzo[b,e]-[1,4]diazepin]: the “physical and chemical stability” value in series [1] (form obtained at ambient temperatures) was “excellent physical and chemical stability properties”. Further, in series [1], the “conversion to hydrated or other crystalline forms on storage” value is reported as “does not convert to the hydrated forms or other crystalline forms” and the “stability under humid atmosphere / high relative humidity” value is given as “very stable under humid atmosphere”. Moreover, the water solubility result in series [2] was “better water solubility than crystal form B”.

In the case of `CCCCCCOc1nsnc1C1=CCCN(C)C1` [Xanomeline], the adverse motoric effects result in series [3] (initial clinical studies in schizophrenics) is recorded as “did not induce adverse motoric effects”. Also, the “efficacy in treating schizophrenia” value in series [3] (schizophrenia) was “efficacious in treating schizophrenia”. Besides, in series [3] (schizophrenics), the “efficacy against positive and negative symptoms” value is “efficacy against both positive and negative symptoms”. Also, in series [4], the “efficacy in controlling psychosis and related behavioral disturbances” value was “efficacy in controlling psychosis and related behavioral disturbances”.

Turning to `Clc1ccc2c(c1)N=C(N1CCNCC1)c1ccccc1N2` [Form D, 8-chloro-11-(1-piperazinyl)-5H-dibenzo[b,e]-[1,4]diazepin], the “time to formation of Form B on contact with humidity” value in series [1] (contacted with humidity) is on record as “within hours”. Also, in series [1] (exclusion of humidity, ambient temperature), the “stability under exclusion of humidity” value is given as “stable”. Besides, the solubility in solvents entry in series [5] is listed as “satisfying solubility in solvents”.

`Clc1ccc2c(c1)N=C(N1CCNCC1)c1ccccc1N2` [NDMC, 8-chloro-11-(1-piperazinyl)-5H-dibenzo[b,e]-[1,4]diazepin]: in series [6], the “effectiveness in the treatment of psychosis and other neuropsychiatric disorders” value is “effective in the treatment of psychosis and other neuropsychiatric disorders”.

For `Clc1ccc2c(c1)N=C(N1CCNCC1)c1ccccc1N2` [Form B, 8-chloro-11-(1-piperazinyl)-5H-dibenzo[b,e]-[1,4]diazepin], the “stability at elevated temperatures or under dry nitrogen” value in series [1] (elevated temperatures or dry nitrogen, loses its water and is transformed into Form D) is recorded as “unstable”. In addition, the “stability under normal conditions” value in series [1] (normal conditions, ambient temperatures) is “very stable”. Moreover, in series [1], the “conversion to hydrated or other crystalline forms on storage” value is “No conversion to other crystalline forms or hydrates was observed” and the “stability under humid atmosphere / high relative humidity” value was “very stable hydrate”. Moreover, the water solubility result in series [2] is listed as “specially water soluble”.
